The results in this text go back to US10562912B2 (C&C Research Laboratories, priority 2013, dated 2020).

Holding throughout (format): cell-based
In one experiment the test system is LNCaP. Description: Cell growth inhibition assay, prostate cancer cell line LNCaP (medium with 10 ng/mL IL-6). As to conditions: Homo sapiens, medium supplemented with 10 ng/mL of IL-6, 10,000 cells/well.
The test system of a further experiment is MDA-MB-231. Put plainly: Cell growth inhibition assay, breast cancer cell line MDA-MB-231. As to conditions: Homo sapiens; MDA-MB-231 breast cancer cell line, 5,000 cells/well.
Another experiment relates to HEL92.1.7. Description: Cell growth inhibition assay, blood cancer cell line HEL92.1.7. As to conditions: Homo sapiens, HEL 92.1.7, HEL92.1.7 blood cancer cell line. The gist of the method: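 Cells were seeded at 3,000/well (HCT116, DU-145) or 5,000/well (SW626 and the others) and exposed to serial compound dilutions for 72 to 96 h at 37 °C under 5% CO2. Viability was read as CellTiter-Glo luminescence against 0.1% DMSO and cell-free wells.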

The test system of another experiment is DU-145. Put plainly: Cell growth inhibition assay, prostate cancer cell line DU-145. As to conditions: Homo sapiens, DU-145 prostate cancer cell line. The procedure, abridged:
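Luminescent CellTiter-Glo readout of viable cells after 72–96 h compound exposure (37° C., 5% CO2). Seeding: 3,000 cells/well for DU-145 and HCT116, 5,000 cells/well for SW626. Controls were medium without cells and 0.1% DMSO vehicle.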

A further experiment concerns the target T1, STAT3 (Homo sapiens, UniProt P40763).
T1 construct: plasmid pSTAT3-TA-luc), which contains a stably operating STAT3 promoter; endogenous in cells
Description: STAT3 reporter gene assay (luciferase), LNCaP stable cell line (pSTAT3-TA-luc), IL-6 stimulation. The gist of the method:
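LNCaP cells stably carrying pSTAT3-TA-luc, in RPMI1640 with 3% DCC-FBS, were treated with compound and then stimulated with 10 ng/mL IL-6 for 24–48 h at 37 °C. Luciferase activity was measured in lysates. A parallel plate measured viability by CellTiter-Glo, with stimulated 0.1% DMSO wells as the positive control.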
For orientation: A reporter such as luciferase makes a cellular process visible.

For the next experiment, the system named is AGS. Put plainly: Cell growth inhibition assay, stomach cancer cell line AGS. As to conditions: Homo sapiens; AGS stomach cancer cell line, 3,000 cells/well. On the procedure:
The inhibitory effects of the compounds of the present invention against the growth of cancer cells were evaluated as shown below. The cancer cell lines including stomach cancer cell line (AGS), breast cancer cell lines (MDA-MB-231, MDA-MB-468, and BT-549), prostate cancer cell lines (LNCaP and DU-145), colon cancer cell line (HCT116), ovarian cancer cell line (SW626), liver cancer cell line (Hep3B), kidney cancer cell line (ACHN), lung cancer cell line (NCI-H23) and blood cancer cell lines (HEL92.1.7 and U266) were cultured under the protocol provided by each supplier. A medium supplemented with 10 ng/mL of IL-6 was used for LNCaP, a prostate cancer cell line, when treated with a drug. Each type of cells to be used in experiments were sub-cultured in a 96-well plate by counting the exact number of cells using Tali™ Image-based Cytometer (Life Technologies). In a 96-well plate, AGS, HCT116, and DU-145 were employed with 3,000 cells/well; NCI-H23, SW626, Hep3B, ACHN, BT-549, MDA-MB-231, HEL92.1.7, and U266 were employed with 5,000 cells/well; and LNCaP and MDA-MB-468 were employed with 10,000 cells/well. The cells were treated with the compounds listed in Examples which were diluted in various concentrations. Upon completion of the compounds treatment, AGS, HCT116, SW626, DU145, NCI-H23, Hep3B, ACHN, BT-549, LNCaP, HEL92.1.7, and U266 cells were cultured at 37° C. under 5% CO2 for from 72 to 96 hours, and MDA-MB-231 and MDA-MB-468 cells were cultured at 37° C. in air for from 72 to 96 hours. Subsequently, the cells were observed under microscope and drug precipitation and particular findings were investigated and recorded. And then, the 96-well plate was placed at room temperature for 30 minutes, added with 20 μL/well of CellTiter-Glo solution (Cat No. G7573, Promega) and shaken for 10 minutes, followed by being subjected to the measurement using PHERAstar™ microplate reader (BMG LABTECH) according to the supplier's general luminometer protocol. Wells where only culture liquid added without cell plating were used as a negative control, whereas wells where culture liquid containing 0.1% DMSO instead of the compounds listed in Examples were used as a positive control.

The structures appear in SMILES notation.

T1 sequence (P40763 whole entry): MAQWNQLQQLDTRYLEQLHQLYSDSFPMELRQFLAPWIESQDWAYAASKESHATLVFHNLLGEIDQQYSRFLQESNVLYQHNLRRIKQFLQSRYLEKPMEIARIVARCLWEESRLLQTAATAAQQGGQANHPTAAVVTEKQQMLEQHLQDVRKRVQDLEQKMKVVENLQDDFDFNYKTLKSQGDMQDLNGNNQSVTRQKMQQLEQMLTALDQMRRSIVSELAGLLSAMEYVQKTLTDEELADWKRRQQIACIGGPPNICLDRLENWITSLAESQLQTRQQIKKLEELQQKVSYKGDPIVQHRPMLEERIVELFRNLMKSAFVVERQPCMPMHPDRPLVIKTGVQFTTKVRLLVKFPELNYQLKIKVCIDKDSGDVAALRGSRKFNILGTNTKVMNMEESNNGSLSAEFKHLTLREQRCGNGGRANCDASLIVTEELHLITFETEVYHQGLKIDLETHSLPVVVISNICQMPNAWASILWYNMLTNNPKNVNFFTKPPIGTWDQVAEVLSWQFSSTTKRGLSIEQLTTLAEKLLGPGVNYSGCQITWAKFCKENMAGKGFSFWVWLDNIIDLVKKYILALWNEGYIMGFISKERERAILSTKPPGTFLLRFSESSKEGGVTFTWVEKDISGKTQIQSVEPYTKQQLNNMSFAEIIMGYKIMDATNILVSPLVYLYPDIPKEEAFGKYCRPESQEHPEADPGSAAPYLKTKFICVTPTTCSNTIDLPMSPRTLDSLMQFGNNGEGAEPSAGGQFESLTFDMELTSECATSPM

On to `CC(C)(c1cc(Br)cc(NC(=O)c2cc3ccc(NS(C)(=O)=O)cc3[nH]2)c1)c1ccc(F)cc1F` [Example 15, N-(3-bromo-5-(2-(2,4-difluorophenyl)propan-2-yl)phenyl)-6-(methylsulfonamido)-1H-indole-2-carboxamide], for which the IC50 (commonly the concentration that inhibits the measured activity by half) in the experiment on LNCaP was found to be 0.29 µM; with MDA-MB-231, 0.068 µM; in the experiment on HEL92.1.7 it was 1.8 µM; in the experiment on DU-145 it was 0.25 µM; at STAT3 it was 0.12 µM.

As for `CC(C)(c1cc(Br)cc(NC(=O)c2cc3cc(NS(C)(=O)=O)ccc3s2)c1)c1ccc(F)cc1F` [Example 35, N-(3-bromo-5-(2-(2,4-difluorophenyl)propan-2-yl)phenyl)-5-(methylsulfonamido)benzo[b]thiophene-2-carboxamide], the IC50 was determined as 0.067 µM in the experiment on LNCaP; 0.027 µM with MDA-MB-231; 0.28 µM in the experiment on HEL92.1.7; 0.06 µM in the experiment with DU-145; 0.076 µM against STAT3.

Regarding `O=C(Nc1cccc(-c2ccc(F)cc2F)c1)c1cc2ccc([N+](=O)[O-])cc2[nH]1` [Example 225, N-(2′,4′-difluoro-[1,1′-biphenyl]-3-yl)-6-nitro-1H-indole-2-carboxamide], the half-maximal inhibitory concentration (IC50) was over 10 µM with LNCaP, over 50 µM in the experiment on AGS and over 10 µM on STAT3.

On to `O=C(Nc1cccc(-c2ccccc2C(F)(F)F)c1)c1cc2ccc([N+](=O)[O-])cc2[nH]1` [Example 226, 6-nitro-N-(2′-(trifluoromethyl)-[1,1′-biphenyl]-3-yl)-1H-indole-2-carboxamide], for which the IC50 is over 10 µM in the experiment on LNCaP, 6.9 µM in the experiment with AGS and 6.3 µM against STAT3.

As to `O=C(Nc1cccc(-c2ccccc2C(F)(F)F)c1)c1cc2cc([N+](=O)[O-])ccc2[nH]1` [Example 227, 5-nitro-N-(2′-(trifluoromethyl)-[1,1′-biphenyl]-3-yl)-1H-indole-2-carboxamide], the results for the IC50 in the experiment with LNCaP, with AGS and against STAT3 were over 10 µM, 30 µM and over 10 µM, respectively.

Regarding `Cc1c(C(=O)Nc2cccc(-c3ccccc3C(F)(F)F)c2)[nH]c2ccc([N+](=O)[O-])cc12` [Example 228, 3-methyl-5-nitro-N-(2′-(trifluoromethyl)-[1,1′-biphenyl]-3-yl)-1H-indole-2-carboxamide], the results for the IC50 with LNCaP, in the experiment with AGS and on STAT3 were over 10 µM, 41.4 µM and over 10 µM, respectively.

On to `O=C(Nc1cccc(-c2ccc(F)cc2C(F)(F)F)c1)C1Cc2ccc([N+](=O)[O-])cc2N1` (stereo not shown) [Example 229, N-(4′-fluoro-2′-(trifluoromethyl)-[1,1′-biphenyl]-3-yl)-6-nitroindoline-2-carboxamide], for which the IC50 was 5.4 µM in the experiment with LNCaP, 16.1 µM in the experiment with AGS and 1.4 µM at STAT3.

With `O=C(Nc1cccc(-c2ccccc2C(F)(F)F)c1)C1Cc2ccc([N+](=O)[O-])cc2N1` (stereo not shown) [Example 230, 6-nitro-N-(2′-(trifluoromethyl)-[1,1′-biphenyl]-3-yl)indoline-2-carboxamide], the IC50 in the experiment with LNCaP is 2.7 µM; with AGS, 17.6 µM; against STAT3, 1.1 µM.

With `O=C(Nc1cccc(-c2ccc(F)cc2F)c1)C1Cc2ccc([N+](=O)[O-])cc2N1` (stereo not shown) [Example 231, N-(2′,4′-difluoro-[1,1′-biphenyl]-3-yl)-6-nitroindoline-2-carboxamide], the results for the half-inhibitory concentration (IC50) in the experiment with LNCaP, in the experiment with AGS and on STAT3 were over 10 µM, 19.3 µM and 2.9 µM, respectively.

`CS(=O)(=O)Nc1ccc2cc(C(=O)Nc3cccc(-c4ccc(F)cc4F)c3)[nH]c2c1` [Example 270, N-(2′,4′-difluoro-[1,1′-biphenyl]-3-yl)-6-(methylsulfonamido)-1H-indole-2-carboxamide]: the IC50 with LNCaP worked out at 1.01 µM; with MDA-MB-231, 0.7 µM; with HEL92.1.7 it was 1.7 µM; against STAT3, 0.38 µM.

Take `CS(=O)(=O)Nc1ccc2cc(C(=O)Nc3cc(Br)cc(-c4ccc(F)cc4F)c3)[nH]c2c1` [Example 302, N-(5-bromo-2′,4′-difluoro-[1,1′-biphenyl]-3-yl)-6-(methylsulfonamido)-1H-indole-2-carboxamide]: the IC50 with LNCaP was 2.5 µM; in the experiment on MDA-MB-231 it was 0.11 µM; in the experiment with HEL92.1.7, 2.7 µM; with DU-145, 0.57 µM; at STAT3, 0.4 µM.

`CS(=O)(=O)Nc1ccc2sc(C(=O)Nc3cc(Br)cc(-c4ccc(F)cc4F)c3)cc2c1` [Example 305, N-(5-bromo-2′,4′-difluoro-[1,1′-biphenyl]-3-yl)-5-(methylsulfonamido)benzo[b]thiophene-2-carboxamide]: the IC50 came to 0.072 µM in the experiment on LNCaP; 0.001 µM in the experiment with MDA-MB-231; 0.24 µM in the experiment with HEL92.1.7; 0.03 µM with DU-145; 0.067 µM on STAT3.

`CN(c1ccc2cc(C(=O)Nc3cccc(-c4ccc(F)cc4F)c3)[nH]c2c1)S(C)(=O)=O` [Example 344, N-(2′,4′-difluoro-[1,1′-biphenyl]-3-yl)-6-(N-methylmethylsulfonamido)-1H-indole-2-carboxamide]: the IC50 was 0.014 µM with LNCaP, 0.1 µM with MDA-MB-231, 0.49 µM with HEL92.1.7 and 0.15 µM against STAT3.

For the molecule `CC(C)Oc1cc(OC(F)(F)F)cc(C2(c3cc(Cl)cc(NC(=O)c4cc5cc(NS(C)(=O)=O)ccc5s4)c3)CC2)c1` [Example 431, N-(3-chloro-5-(1-(3-isopropoxy-5-(trifluoromethoxy)phenyl)cyclopropyl)phenyl)-5-(methylsulfonamido)benzo[b]thiophene-2-carboxamide], the IC50 is 0.034 µM in the experiment with LNCaP, 0.007 µM in the experiment with HEL92.1.7, 0.038 µM in the experiment on DU-145 and 0.053 µM against STAT3.

On to `CS(=O)(=O)Nc1ccc2sc(C(=O)Nc3cc(Cl)cc(Nc4ccc(F)cc4F)c3)cc2c1` [Example 438, N-(3-chloro-5-((2,4-difluorophenyl)amino)phenyl)-5-(methylsulfonamido)benzo[b]thiophene-2-carboxamide], for which the half-inhibitory concentration (IC50) came out at 0.42 µM with LNCaP, 0.48 µM with HEL92.1.7, 0.16 µM in the experiment with DU-145 and 0.2 µM on STAT3.

As for `CN(c1cc(Cl)cc(NC(=O)c2cc3cc(NS(C)(=O)=O)ccc3s2)c1)c1ccc(F)cc1F` [Example 439, N-(3-chloro-5-((2,4-difluorophenyl)(methyl)amino)phenyl)-5-(methylsulfonamido)benzo[b]thiophene-2-carboxamide], the concentration for half-maximal inhibition (IC50) in the experiment on LNCaP was 0.15 µM; in the experiment on HEL92.1.7, 0.64 µM; with DU-145, 0.089 µM; on STAT3, 0.053 µM.

`CN(c1ccc(Cl)cc1)c1cc(Cl)cc(NC(=O)c2cc3cc(NS(C)(=O)=O)ccc3s2)c1` [Example 440, N-(3-chloro-5-((4-chlorophenyl)(methyl)amino)phenyl)-5-(methylsulfonamido)benzo[b]thiophene-2-carboxamide]: the IC50 in the experiment with LNCaP stood at 0.021 µM; in the experiment on HEL92.1.7, 0.085 µM; with DU-145, 0.012 µM; at STAT3 it was 0.036 µM.

Take `CS(=O)(=O)Nc1ccc2sc(C(=O)Nc3cc(Cl)cc(Oc4ccc(F)cc4F)c3)cc2c1` [Example 444, N-(3-chloro-5-(2,4-difluorophenoxy)phenyl)-5-(methylsulfonamido)benzo[b]thiophene-2-carboxamide]: the IC50 was determined as 0.24 µM in the experiment on LNCaP, 0.65 µM with HEL92.1.7, 0.13 µM with DU-145 and 0.083 µM at STAT3.

Turning to `CS(=O)(=O)Nc1ccc2sc(C(=O)Nc3cc(Cl)cc(Oc4ccc(Cl)cc4)c3)cc2c1` [Example 445, N-(3-chloro-5-(4-chlorophenoxy)phenyl)-5-(methylsulfonamido)benzo[b]thiophene-2-carboxamide], the half-maximal inhibitory concentration (IC50) in the experiment on LNCaP amounted to 0.074 µM; in the experiment with HEL92.1.7, 0.15 µM; in the experiment on DU-145, 0.055 µM; against STAT3, 0.066 µM.
